The target in assay [1] is T1, Corticotropin-releasing factor receptor 2/Corticotropin-releasing factor-binding protein (Homo sapiens, UniProt P24387+Q13324).
T1 sequence (Q13324 whole entry): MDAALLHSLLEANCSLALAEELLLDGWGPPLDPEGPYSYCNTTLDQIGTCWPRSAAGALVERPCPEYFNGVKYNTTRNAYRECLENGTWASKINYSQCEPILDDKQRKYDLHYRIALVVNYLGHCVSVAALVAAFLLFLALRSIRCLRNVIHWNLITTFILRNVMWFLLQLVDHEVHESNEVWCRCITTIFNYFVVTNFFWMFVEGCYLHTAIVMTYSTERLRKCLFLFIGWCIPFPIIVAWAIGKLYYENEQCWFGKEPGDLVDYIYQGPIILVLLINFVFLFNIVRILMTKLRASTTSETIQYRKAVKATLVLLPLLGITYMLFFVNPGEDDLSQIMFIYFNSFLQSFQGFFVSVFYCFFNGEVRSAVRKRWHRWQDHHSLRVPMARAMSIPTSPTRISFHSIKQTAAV
T1 sequence (P24387 whole entry): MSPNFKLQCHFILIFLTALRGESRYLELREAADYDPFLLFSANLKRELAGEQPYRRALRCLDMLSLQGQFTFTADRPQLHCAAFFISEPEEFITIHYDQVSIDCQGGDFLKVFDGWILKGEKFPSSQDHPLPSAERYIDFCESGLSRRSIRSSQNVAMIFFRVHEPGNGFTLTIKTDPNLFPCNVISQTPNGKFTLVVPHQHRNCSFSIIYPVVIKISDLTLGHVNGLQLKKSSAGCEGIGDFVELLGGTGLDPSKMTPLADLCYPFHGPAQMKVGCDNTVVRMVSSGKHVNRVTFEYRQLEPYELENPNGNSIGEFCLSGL
As to the kind of experiment: activators of CRF receptor 2 with binding protein – uHTS hits, confirmation (AID 602473). The class given is functional. The following applies: read-out: EC50_Mean.

Assay [2] has as its target Nuclear receptor subfamily 5 group A member 2 (Homo sapiens, UniProt O00482). The class given is functional, cell-based.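 Also: HEK293T cells transfected with LRH-1 and a StAR promoter luciferase reporter; potency for inhibitors that lower LRH-1 driven reporter light.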
A further assay deals with T2, Leucine aminopeptidase (Plasmodium falciparum 3D7, UniProt Q8IL11).
T2 sequence (Q8IL11 whole entry): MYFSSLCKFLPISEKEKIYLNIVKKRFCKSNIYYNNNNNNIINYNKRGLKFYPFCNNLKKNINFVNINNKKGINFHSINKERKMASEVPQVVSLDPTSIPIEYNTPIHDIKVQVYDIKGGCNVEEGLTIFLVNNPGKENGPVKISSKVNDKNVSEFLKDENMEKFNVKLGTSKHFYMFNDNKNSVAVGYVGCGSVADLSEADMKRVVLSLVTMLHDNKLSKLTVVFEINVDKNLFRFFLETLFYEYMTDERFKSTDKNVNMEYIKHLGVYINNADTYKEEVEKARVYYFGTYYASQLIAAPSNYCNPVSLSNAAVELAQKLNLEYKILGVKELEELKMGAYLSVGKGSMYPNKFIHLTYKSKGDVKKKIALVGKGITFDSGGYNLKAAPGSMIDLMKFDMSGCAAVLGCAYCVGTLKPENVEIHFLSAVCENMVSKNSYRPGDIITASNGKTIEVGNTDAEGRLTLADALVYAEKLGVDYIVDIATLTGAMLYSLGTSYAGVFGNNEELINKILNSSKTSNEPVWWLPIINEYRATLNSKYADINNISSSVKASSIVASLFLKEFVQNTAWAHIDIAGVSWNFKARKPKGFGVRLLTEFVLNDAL
Put plainly: P. falciparum M17LAP inhibitors, primary screen, biochemical, fluorogenic H-Leu-NHMec substrate, 1536-well (AID 1619). Format: functional.

In assay [3] the target is T1, Corticotropin-releasing factor receptor 2/Corticotropin-releasing factor-binding protein. As to the kind of experiment: Dose Response confirmation of uHTS hits for small molecule antagonists of the CRF-binding protein and CRF-R2 receptor complex. Format: functional. The settings on record: read-out: IC50_Mean.
The next assay concerns the target Steroidogenic factor 1 (Homo sapiens, UniProt Q13285). As to the kind of experiment: Counterscreen for inverse agonists of the liver receptor homolog-1 (LRH-1; NR5A2): Luminescence-based cell-based high throughput dose response assay to identify inverse agonists of the Steroidogenic Factor 1 Nuclear Receptor (SF1; NR5A1). The class given is functional. For orientation: The purpose of a counterscreen is to sort out artefacts and off-target activity.

The nature of assay [4]: nonselective StAR promoter luciferase inhibitors – cell-based, luminescence, luciferase reporter, counter-screen for LRH-1 inverse agonist project, dose response (AID 651969). Format: functional. On the technique in general: In a reporter assay the amount or activity of a reporter protein is the signal.
Another assay concerns the target Genome polyprotein (dengue virus type 2, UniProt P29990). Put plainly: flavivirus cap methylation enzyme inhibition – biochemical, confirmation dose response, primary screen (AID 588689). The class given is functional.
In assay [5] the target is T3, Probable nicotinate-nucleotide adenylyltransferase (Staphylococcus aureus (strain N315), UniProt P65502). Format: functional, Staphylococcus aureus subsp. aureus N315. The settings on record: read-out: IC50_Mean.
T3 sequence (P65502 whole entry): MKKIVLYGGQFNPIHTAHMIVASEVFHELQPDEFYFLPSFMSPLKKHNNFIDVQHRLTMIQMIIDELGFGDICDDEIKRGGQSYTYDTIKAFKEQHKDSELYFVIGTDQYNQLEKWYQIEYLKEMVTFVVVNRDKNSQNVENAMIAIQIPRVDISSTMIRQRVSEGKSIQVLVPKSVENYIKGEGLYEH
The target of assay [6] is T3, Probable nicotinate-nucleotide adenylyltransferase. The class given is functional, Staphylococcus aureus subsp. aureus N315.
In assay [7] the target is T4, SUMO-activating enzyme (Homo sapiens, UniProt Q9UBT2). As to the kind of experiment: blockers of UBC9-mediated SUMO conjugation – biochemical, AlphaScreen, SUMOylation inhibitor project, confirmation (AID 2018). The class given is functional. For orientation: Alpha assays give light when donor and acceptor beads are brought close together.
T4 sequence (Q9UBE0 whole entry): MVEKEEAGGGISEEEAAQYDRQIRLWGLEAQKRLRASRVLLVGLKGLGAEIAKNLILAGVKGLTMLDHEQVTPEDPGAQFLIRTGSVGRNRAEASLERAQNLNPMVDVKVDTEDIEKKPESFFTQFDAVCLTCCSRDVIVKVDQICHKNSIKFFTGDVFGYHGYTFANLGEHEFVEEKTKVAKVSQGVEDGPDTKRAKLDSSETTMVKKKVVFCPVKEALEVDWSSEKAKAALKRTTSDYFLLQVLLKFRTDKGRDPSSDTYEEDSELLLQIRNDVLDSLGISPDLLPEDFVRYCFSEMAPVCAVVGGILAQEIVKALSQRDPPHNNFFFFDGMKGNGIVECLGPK
T4 sequence (Q9UBT2 whole entry): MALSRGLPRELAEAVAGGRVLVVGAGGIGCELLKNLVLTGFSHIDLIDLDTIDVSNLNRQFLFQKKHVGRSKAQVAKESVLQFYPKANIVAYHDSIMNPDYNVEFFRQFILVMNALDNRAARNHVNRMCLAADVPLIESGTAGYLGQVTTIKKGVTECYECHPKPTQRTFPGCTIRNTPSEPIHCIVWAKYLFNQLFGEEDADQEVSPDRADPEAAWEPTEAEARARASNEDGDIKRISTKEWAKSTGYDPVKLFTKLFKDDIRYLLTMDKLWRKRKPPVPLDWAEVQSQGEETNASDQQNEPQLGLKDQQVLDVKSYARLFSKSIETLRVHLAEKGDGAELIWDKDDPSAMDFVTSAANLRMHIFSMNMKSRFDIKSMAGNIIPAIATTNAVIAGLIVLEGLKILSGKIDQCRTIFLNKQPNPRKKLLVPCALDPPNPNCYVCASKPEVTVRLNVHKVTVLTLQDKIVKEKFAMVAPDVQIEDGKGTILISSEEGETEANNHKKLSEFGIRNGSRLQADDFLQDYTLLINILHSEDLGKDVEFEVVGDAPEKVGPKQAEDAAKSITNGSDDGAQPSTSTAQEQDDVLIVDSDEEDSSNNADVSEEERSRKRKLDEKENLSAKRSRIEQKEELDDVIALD
In assay [8] the target is T5, Low molecular weight phosphotyrosine protein phosphatase (Homo sapiens, UniProt P24666).
T5 sequence (P24666 whole entry): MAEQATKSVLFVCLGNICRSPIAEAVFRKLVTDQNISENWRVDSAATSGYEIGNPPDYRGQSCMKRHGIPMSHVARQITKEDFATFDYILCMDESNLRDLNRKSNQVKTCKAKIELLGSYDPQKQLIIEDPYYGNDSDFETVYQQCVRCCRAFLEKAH
The class given is functional. The following applies: read-out: IC50_Mean.

The target in assay [9] is T6, Tyrosine-protein phosphatase non-receptor type 22 (Homo sapiens, UniProt Q9Y2R2).
T6 sequence (Q9Y2R2 whole entry): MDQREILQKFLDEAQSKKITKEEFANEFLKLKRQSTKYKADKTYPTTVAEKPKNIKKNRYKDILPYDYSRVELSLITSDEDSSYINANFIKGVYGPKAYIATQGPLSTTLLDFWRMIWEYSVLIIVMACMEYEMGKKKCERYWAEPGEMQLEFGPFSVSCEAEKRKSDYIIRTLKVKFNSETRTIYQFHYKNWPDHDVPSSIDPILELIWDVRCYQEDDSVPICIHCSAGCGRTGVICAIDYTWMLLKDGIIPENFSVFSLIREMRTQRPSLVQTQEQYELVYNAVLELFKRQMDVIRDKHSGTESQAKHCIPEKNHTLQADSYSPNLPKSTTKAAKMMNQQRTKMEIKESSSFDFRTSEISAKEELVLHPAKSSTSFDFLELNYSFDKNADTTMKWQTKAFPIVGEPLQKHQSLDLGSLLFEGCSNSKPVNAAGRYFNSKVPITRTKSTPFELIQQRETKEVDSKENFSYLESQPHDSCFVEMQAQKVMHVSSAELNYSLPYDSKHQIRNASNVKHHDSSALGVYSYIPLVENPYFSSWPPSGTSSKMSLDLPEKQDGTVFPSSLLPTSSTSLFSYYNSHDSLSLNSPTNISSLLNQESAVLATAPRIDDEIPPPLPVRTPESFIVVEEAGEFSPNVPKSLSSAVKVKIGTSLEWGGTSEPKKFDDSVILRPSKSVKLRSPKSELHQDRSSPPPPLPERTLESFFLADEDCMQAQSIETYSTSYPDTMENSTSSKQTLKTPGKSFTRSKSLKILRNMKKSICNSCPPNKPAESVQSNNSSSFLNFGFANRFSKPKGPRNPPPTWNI
Put plainly: PTPN22 enzyme inhibitors – biochemical, fluorescence, LYP catalytic domain, selectivity assay for LMPTP inhibitor project, dose response (AID 652006). Format: functional. The settings on record: read-out: IC50_Mean.

For assay [10], the target named is Peroxisome proliferator-activated receptor gamma/Nuclear receptor coactivator 1 (Homo sapiens, UniProt P37231). The class given is functional.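 Also: agonist potency as compounds enhance coactivator SRC-1 recruitment to PPARgamma.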
Assay [11] deals with T4, SUMO-activating enzyme. Put plainly: blockers of SAE1/SAE2–UBC9 SUMO transfer – biochemical, HTRF, uHTS, primary screen (AID 2006). Format: protein-complex assay.
A short description of assay [12]: viability of HCT116 lacking mutant beta-catenin – cell-based, human colon tumor, dose response (AID 1045).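 Also: HCT116 colon tumor cells with beta catenin knocked out; cells exposed to compound for 60 hours.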 The class given is functional.
Assay [13] has as its target T7, Carboxy-terminal domain RNA polymerase II polypeptide A small phosphatase 1 (Homo sapiens, UniProt Q9GZU7).
T7 sequence (Q9GZU7 whole entry): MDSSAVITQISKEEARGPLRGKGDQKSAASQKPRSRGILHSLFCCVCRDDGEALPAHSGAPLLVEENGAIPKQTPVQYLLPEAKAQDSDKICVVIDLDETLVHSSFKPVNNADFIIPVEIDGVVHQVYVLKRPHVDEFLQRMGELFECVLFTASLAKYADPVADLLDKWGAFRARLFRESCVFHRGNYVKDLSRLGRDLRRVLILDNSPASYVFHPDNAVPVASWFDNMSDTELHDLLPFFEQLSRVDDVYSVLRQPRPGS
Put plainly: CTDSP1 inhibitors, concentration-response, biochemical, absorbance readout, ultra-high-throughput screen actives (AID 540297). The class given is functional.

The target in assay [14] is Peroxisome proliferator-activated receptor gamma/Nuclear receptor coactivator 3 (Homo sapiens, UniProt P37231). The class given is functional.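 Also: agonist potency for raising coactivator recruitment to the receptor.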
In assay [15] the target is Peroxisome proliferator-activated receptor gamma/Nuclear receptor coactivator 2 (Homo sapiens, UniProt P37231). The class given is functional.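 Also: agonist potency for raising coactivator recruitment to the receptor.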
Peroxisome proliferator-activated receptor gamma/Nuclear receptor coactivator 2, sequence (P37231 whole entry): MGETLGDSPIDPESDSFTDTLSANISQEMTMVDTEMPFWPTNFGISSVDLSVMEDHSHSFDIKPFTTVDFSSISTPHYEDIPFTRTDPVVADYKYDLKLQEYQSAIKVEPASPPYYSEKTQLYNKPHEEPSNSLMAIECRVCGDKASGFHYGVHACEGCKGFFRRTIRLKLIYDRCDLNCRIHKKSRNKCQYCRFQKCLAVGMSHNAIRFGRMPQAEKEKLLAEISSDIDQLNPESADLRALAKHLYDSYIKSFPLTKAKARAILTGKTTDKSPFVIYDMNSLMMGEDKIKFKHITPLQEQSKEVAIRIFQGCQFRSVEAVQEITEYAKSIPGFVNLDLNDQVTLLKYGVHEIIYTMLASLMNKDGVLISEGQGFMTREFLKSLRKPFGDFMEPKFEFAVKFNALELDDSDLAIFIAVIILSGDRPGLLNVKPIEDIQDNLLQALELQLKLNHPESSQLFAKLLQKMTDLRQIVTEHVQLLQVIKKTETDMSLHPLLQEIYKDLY
Peroxisome proliferator-activated receptor gamma/Nuclear receptor coactivator 2, sequence (Q15596 whole entry, further chain): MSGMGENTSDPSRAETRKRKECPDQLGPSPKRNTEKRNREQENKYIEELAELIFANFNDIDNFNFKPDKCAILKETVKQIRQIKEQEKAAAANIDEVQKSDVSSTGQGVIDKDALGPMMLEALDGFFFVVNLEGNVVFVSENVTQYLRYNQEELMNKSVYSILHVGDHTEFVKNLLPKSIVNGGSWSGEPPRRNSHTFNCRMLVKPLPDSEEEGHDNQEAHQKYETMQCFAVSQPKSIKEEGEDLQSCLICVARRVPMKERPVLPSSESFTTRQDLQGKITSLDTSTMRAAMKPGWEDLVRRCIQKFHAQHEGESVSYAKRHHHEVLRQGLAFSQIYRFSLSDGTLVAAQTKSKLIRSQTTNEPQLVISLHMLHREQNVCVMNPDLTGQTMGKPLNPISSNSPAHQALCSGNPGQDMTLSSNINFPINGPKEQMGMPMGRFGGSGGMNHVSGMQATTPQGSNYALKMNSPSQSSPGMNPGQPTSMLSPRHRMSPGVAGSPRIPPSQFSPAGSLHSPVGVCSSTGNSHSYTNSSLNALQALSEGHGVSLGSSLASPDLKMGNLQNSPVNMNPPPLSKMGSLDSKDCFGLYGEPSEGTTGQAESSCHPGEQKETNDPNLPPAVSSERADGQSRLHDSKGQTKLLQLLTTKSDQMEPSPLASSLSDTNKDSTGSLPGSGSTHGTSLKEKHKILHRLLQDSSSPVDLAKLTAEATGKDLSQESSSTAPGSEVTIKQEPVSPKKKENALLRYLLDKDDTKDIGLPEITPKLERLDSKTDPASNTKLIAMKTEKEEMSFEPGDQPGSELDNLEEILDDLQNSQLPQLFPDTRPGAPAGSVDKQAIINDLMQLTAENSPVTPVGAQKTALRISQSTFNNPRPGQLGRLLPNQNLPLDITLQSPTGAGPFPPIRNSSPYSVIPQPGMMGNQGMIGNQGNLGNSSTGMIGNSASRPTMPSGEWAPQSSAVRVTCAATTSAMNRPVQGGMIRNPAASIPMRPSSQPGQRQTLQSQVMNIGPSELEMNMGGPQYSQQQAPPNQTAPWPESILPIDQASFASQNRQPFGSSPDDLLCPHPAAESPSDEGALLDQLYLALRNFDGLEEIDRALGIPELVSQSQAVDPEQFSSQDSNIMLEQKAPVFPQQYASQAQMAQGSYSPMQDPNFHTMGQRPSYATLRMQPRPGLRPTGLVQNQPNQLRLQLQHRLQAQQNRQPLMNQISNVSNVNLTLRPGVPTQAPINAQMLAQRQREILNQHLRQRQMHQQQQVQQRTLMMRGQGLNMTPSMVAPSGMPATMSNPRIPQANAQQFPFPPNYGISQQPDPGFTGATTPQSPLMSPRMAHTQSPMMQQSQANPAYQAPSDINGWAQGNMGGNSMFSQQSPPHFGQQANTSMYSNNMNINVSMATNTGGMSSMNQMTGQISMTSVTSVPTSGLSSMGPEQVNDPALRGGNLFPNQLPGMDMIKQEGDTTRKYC
Assay [16] deals with T5, Low molecular weight phosphotyrosine protein phosphatase. The class given is functional. The settings on record: read-out: IC50_Mean. This is another data set of the same source.
A short description of assay [17]: viability of PTEN-deleted HCT116 cells – cell-based, HCT116 PTEN knockout, dose response (AID 1047).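 Also: HCT116 colon tumor cells with PTEN knocked out; cells exposed to compound for 60 hours before readout; potency for loss of cell viability measured by luminescence.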 The class given is functional.
A further assay has as its system H9c2. Put plainly: cells. The following applies: Rattus norvegicus, H9c2, Myocardium. The class given is functional, cell-based.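 Also: confirmatory concentration-response retest of ultra-high-throughput screening hits for modulation of myocardial damage; cell death induced by hydrogen peroxide oxidative stress; compound pretreatment for 60 min then peroxide exposure for 2 h; potency is for protecting the cells against peroxide damage rather than for killing them.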
For assay [18], the target named is Beta-lactamase (Pseudomonas aeruginosa, UniProt Q79MP6).
Beta-lactamase (Pseudomonas aeruginosa, UniProt Q79MP6), sequence (Q79MP6 whole entry): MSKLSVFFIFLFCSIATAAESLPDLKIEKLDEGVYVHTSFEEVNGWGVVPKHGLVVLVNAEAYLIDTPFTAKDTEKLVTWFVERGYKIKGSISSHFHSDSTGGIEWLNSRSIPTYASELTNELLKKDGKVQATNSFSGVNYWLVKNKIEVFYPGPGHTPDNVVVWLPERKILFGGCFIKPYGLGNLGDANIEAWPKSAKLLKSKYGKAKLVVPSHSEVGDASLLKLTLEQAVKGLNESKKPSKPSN
Assay [19] has as its target Beta-lactamase (Salmonella choleraesuis (strain SC-B67), UniProt Q5J463).

Structures are written as SMILES. Activity calls are given as the source filed them. Where only a bound is given, the exact number is not on record here.

Nuclear receptor subfamily 5 group A member 2, sequence (O00482 whole entry): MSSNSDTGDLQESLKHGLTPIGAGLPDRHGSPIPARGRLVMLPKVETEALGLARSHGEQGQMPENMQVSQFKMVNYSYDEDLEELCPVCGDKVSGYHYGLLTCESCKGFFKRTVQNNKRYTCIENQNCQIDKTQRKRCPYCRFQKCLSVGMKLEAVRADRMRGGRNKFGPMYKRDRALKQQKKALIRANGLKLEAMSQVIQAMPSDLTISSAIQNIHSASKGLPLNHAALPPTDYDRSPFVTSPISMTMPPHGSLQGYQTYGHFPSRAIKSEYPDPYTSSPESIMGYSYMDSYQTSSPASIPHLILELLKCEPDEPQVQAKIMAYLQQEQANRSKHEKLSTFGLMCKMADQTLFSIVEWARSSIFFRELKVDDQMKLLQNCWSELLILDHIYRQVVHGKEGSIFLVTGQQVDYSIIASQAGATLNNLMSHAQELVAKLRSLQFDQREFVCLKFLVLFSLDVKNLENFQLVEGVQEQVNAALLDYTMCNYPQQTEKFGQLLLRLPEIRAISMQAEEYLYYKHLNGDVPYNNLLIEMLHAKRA
Steroidogenic factor 1, sequence (Q13285 whole entry): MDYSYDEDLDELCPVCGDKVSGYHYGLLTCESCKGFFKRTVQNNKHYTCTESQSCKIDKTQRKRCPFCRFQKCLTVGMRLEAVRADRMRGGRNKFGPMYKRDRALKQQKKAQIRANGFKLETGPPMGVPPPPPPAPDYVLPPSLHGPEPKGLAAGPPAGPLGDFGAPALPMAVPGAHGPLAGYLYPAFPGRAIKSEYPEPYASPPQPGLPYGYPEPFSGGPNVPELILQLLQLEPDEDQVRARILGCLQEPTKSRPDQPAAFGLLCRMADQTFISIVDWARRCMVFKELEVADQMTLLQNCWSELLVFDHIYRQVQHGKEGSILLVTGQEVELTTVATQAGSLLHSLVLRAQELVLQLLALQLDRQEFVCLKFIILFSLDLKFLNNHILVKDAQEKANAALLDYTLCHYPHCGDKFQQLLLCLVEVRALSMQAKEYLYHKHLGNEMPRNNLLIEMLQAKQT
Beta-lactamase (Salmonella choleraesuis (strain SC-B67), UniProt Q5J463), sequence (Q5J463 whole entry): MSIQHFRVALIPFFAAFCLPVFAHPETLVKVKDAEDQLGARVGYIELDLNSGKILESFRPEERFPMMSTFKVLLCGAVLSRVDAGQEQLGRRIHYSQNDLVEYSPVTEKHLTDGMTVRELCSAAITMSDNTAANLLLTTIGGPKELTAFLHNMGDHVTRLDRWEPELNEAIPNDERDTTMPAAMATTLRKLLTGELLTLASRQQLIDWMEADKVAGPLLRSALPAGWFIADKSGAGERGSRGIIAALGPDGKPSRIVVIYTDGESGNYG

As to `Cc1cccc(NC(=O)CSc2nc3n[nH]cc3c(=O)[nH]2)c1C`, the EC50 in assay [1] was > 53 µM (inactive). The IC50 is 6.29 µM (active) in assay [2], 4.46 µM (active) on Leucine aminopeptidase, > 47.1 µM (inactive) in [3] and 2.59 µM (active) on Steroidogenic factor 1.
Turning to `O=[N+]([O-])c1ccc(N2CCN(S(=O)(=O)c3ccccc3)CC2)cc1NCc1cccnc1`, the IC50 is 14.8 µM (inactive) in assay [2], 35.9 µM (inactive) in assay [4] and 5.39 µM (active) on Steroidogenic factor 1.
For the molecule `CCOc1ccc(NS(=O)(=O)c2ccc(Cl)c(NN=C3C(=O)NC(=S)NC3=O)c2)cc1Br`, the IC50 is 44.1 µM (active) at Genome polyprotein, 55 µM (active) in [5] and 5.55 µM (active) in assay [6].
As for `CCOC(=O)Cn1/c(=N/C(=O)c2sc3ccccc3c2Cl)sc2cc(S(N)(=O)=O)ccc21`, the IC50 on SUMO-activating enzyme [7] was 11.8 µM (active); in [8] it was 16.4 µM (active); in assay [9], 52.2 µM (inactive); on SUMO-activating enzyme [11], 4.97 µM (active); in assay [13], 2.06 µM (active); in assay [16], 27.7 µM (inactive). Further, the EC50 is 11.3 µM (not active) in [10]; 46.4 µM (active) in assay [12]; 14.3 µM (not active) in assay [14]; 7.96 µM (active) in [15]; 72.5 µM (active) in assay [17].
On to `O=C(Nc1ccc2oc(-c3ccccc3F)nc2c1)c1ccc([N+](=O)[O-])o1`, for which the IC50 was 3.79 µM (active) in assay [8]; 7.64 µM (active) in assay [9]; > 79 µM (inactive) in the assay on H9c2; 1.23 µM (active) in [13]; > 59.6 µM (inactive) at Beta-lactamase [18]; 3.72 µM (active) in assay [16]. The IC50 on Beta-lactamase [19] is > 59.6 µM (inactive).

The values are drawn from ChEMBL document CHEMBL1201862, “PubChem BioAssay data set” (2004).
